Patent publication US8952024B2, “Herbicidal pyrimidone derivatives” (E I du Pont de Nemours and Company, priority 2009, dated 2015)

Assays:
Assay type in all cases: in vivo
[1] = tested on: corn (Zea mays); experiment: Test A pre-/postemergence plant response
In short: (§1)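 Injury was scored visually after roughly ten days against untreated controls, 0 = no effect, 100 = complete control. Test chemicals in a surfactant-containing non-phytotoxic solvent were sprayed either onto soil preemergence or onto one- to two-leaf, 2–10 cm plants postemergence.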

[2] = tested on: pigweed (Amaranthus retroflexus); experiment: Test A pre-/postemergence plant response
In short: as §1

[3] = tested on: giant foxtail (Setaria faberii); experiment: Test A pre-/postemergence plant response
In short: as §1

[4] = tested on: wheat (Triticum aestivum); experiment: Test A pre-/postemergence plant response
In short: as §1

[5] = tested on: large crabgrass (Digitaria sanguinalis); experiment: Test A pre-/postemergence plant response
In short: as §1

[6] = tested on: velvetleaf (Abutilon theophrasti); experiment: Test A pre-/postemergence plant response
In short: as §1

[7] = tested on: barnyardgrass (Echinochloa crus-galli); experiment: Test A pre-/postemergence plant response
In short: as §1

[8] = tested on: morningglory (Ipomoea spp.); experiment: Test A pre-/postemergence plant response
In short: as §1

[9] = tested on: ducksalad (Heteranthera limosa); experiment: Test B flooded paddy test; conditions: for Plant response rating, Flood, Ducksalad: 250 g ai/ha, flooded paddy test, visual rating on 0 to 100 scale (0 no effect, 100 complete control) after 13 to 15 days; for Plant response rating, Ducksalad: Flood (flooded paddy test), 13 to 15 days; for Ducksalad plant response rating: Flood, 31 g ai/ha, scale 0 to 100 (0 no effect, 100 complete control)
In short: (§2)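 Rice, umbrella sedge, ducksalad and barnyardgrass were grown to the 2-leaf stage, flooded to 3 cm, and compound was applied directly to the paddy water, with that depth kept throughout. After 13 to 15 days in the greenhouse, plants were visually rated against controls on a 0 (no effect) to 100 (complete control) scale.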

[10] = tested on: barnyardgrass (Echinochloa crus-galli); experiment: Test B flooded paddy test; conditions: for Plant response rating, Flood, Barnyardgrass: 250 g ai/ha, flooded paddy test, visual rating on 0 to 100 scale (0 no effect, 100 complete control) after 13 to 15 days; for Plant response rating, Barnyardgrass: Flood (flooded paddy test), 13 to 15 days; for Barnyardgrass plant response rating: Flood, 31 g ai/ha, scale 0 to 100 (0 no effect, 100 complete control)
In short: as §2

[11] = tested on: rice (Oryza sativa); experiment: Test B flooded paddy test; conditions: for Plant response rating, Flood, Rice: 250 g ai/ha, flooded paddy test, visual rating on 0 to 100 scale (0 no effect, 100 complete control) after 13 to 15 days; for Plant response rating, Rice: Flood (flooded paddy test), 13 to 15 days; for Rice plant response rating: Flood, 31 g ai/ha, scale 0 to 100 (0 no effect, 100 complete control)
In short: as §2

[12] = tested on: umbrella sedge (Cyperus difformis); experiment: Test B flooded paddy test; conditions: for Plant response rating, Flood, Sedge, Umbrella: 250 g ai/ha, flooded paddy test, visual rating on 0 to 100 scale (0 no effect, 100 complete control) after 13 to 15 days; for Plant response rating, Sedge, Umbrella: Flood (flooded paddy test), 13 to 15 days; for Sedge, Umbrella plant response rating: Flood, 31 g ai/ha, scale 0 to 100 (0 no effect, 100 complete control)
In short: as §2

[13] = Postemergence, 125 g ai/ha, 0 to 100 scale where 0 is no effect and 100 is complete control
[14] = Postemergence, 500 g ai/ha, visual injury, 0 to 100 scale (0 no effect, 100 complete control), approx. ten days
[15] = Preemergence, 125 g ai/ha, 0 to 100 scale, 0 = no effect, 100 = complete control
[16] = Preemergence, 500 g ai/ha, 0 to 100 scale, 0 = no effect, 100 = complete control
[17] = 62 g ai/ha, scale of 0 to 100 where 0 is no effect and 100 is complete control
[18] = 125 g ai/ha, scale 0 to 100, 0 is no effect, 100 is complete control
[19] = Postemergence, 500 g ai/ha, 0 to 100 scale, 0 = no effect, 100 = complete control, approx. ten days
[20] = Preemergence, 500 g ai/ha, visual injury, 0 to 100 scale (0 no effect, 100 complete control), approx. ten days

For `C#Cc1ccc(-c2ncc(C(=O)C3=C(O)CCCC3=O)c(=O)n2C2CCCCC2)cc1` [Compound 216], the “Plant response rating, Corn” value [1, 13] was 0, the “Corn plant response rating” value [1, 14] was 0 and the “Plant response rating, Corn” value [1, 15] was 0. The “Plant response rating, Corn” value [1, 16] was 20, the “Plant response rating, Pigweed” value [2, 13] was 90 and the “Pigweed plant response rating” value [2, 14] was 90. For the same compound, the “Plant response rating, Pigweed” value [2, 15] was 0, the “Plant response rating, Pigweed” value [2, 16] was 50 and the “Plant response rating, Foxtail, Giant” value [3, 13] was 30. For the same compound, the “Foxtail, Giant plant response rating” value [3, 14] was 70, the “Plant response rating, Foxtail, Giant” value [3, 15] was 0 and the “Plant response rating, Foxtail, Giant” value [3, 16] was 60. For the same compound, the “Plant response rating, Wheat” value [4, 13] was 20, the “Wheat plant response rating” value [4, 14] was 30 and the “Plant response rating, Wheat” value [4, 15] was 0. The “Plant response rating, Wheat” value [4, 16] was 0, the “Plant response rating, Crabgrass, Large” value [5, 13] was 40 and the “Crabgrass, Large plant response rating” value [5, 14] was 80. The “Plant response rating, Crabgrass, Large” value [5, 15] was 0, the “Plant response rating, Crabgrass, Large” value [5, 16] was 80 and the “Plant response rating, Velvetleaf” value [6, 13] was 90. For the same compound, the “Velvetleaf plant response rating” value [6, 14] was 100, the “Plant response rating, Velvetleaf” value [6, 15] was 0 and the “Plant response rating, Velvetleaf” value [6, 16] was 30. For the same compound, the “Plant response rating, Barnyardgrass” value [7, 13] was 10, the “Barnyardgrass plant response rating” value [7, 14] was 90 and the “Plant response rating, Barnyardgrass” value [7, 15] was 0. For the same compound, the “Plant response rating, Barnyardgrass” value [7, 16] was 20, the “Plant response rating, Morningglory” value [8, 13] was 70 and the “Morningglory plant response rating” value [8, 14] was 90. The “Plant response rating, Morningglory” value [8, 15] was 0, the “Plant response rating, Morningglory” value [8, 16] was 30 and the “Plant response rating, Flood, Ducksalad” value [9] was 95. For the same compound, the “Plant response rating, Ducksalad” value [9, 17] was 90, the “Plant response rating, Ducksalad” value [9, 18] was 90 and the “Ducksalad plant response rating” value [9] was 50. The “Plant response rating, Flood, Barnyardgrass” value [10] was 0, the “Plant response rating, Barnyardgrass” value [10, 17] was 0 and the “Plant response rating, Barnyardgrass” value [10, 18] was 0. For the same compound, the “Barnyardgrass plant response rating” value [10] was 0, the “Plant response rating, Flood, Rice” value [11] was 0 and the “Plant response rating, Rice” value [11, 17] was 0. For the same compound, the “Plant response rating, Rice” value [11, 18] was 0, the “Rice plant response rating” value [11] was 0 and the “Plant response rating, Flood, Sedge, Umbrella” value [12] was 100. The “Plant response rating, Sedge, Umbrella” value [12, 17] was 65, the “Plant response rating, Sedge, Umbrella” value [12, 18] was 80 and the “Sedge, Umbrella plant response rating” value [12] was 0.

For `CCn1c(-c2cccc(Cl)c2)ncc(C(=O)C2=C(O)CCCC2=O)c1=O` [Compound 145], the “Plant response rating, Corn” value [1, 13] was 30, the “Plant response rating, Corn” value [1, 19] was 40 and the “Plant response rating, Corn” value [1, 15] was 0. The “Plant response rating, Corn” value [1, 20] was 20, the “Plant response rating, Pigweed” value [2, 13] was 100 and the “Plant response rating, Pigweed” value [2, 19] was 100. For the same compound, the “Plant response rating, Pigweed” value [2, 15] was 70, the “Plant response rating, Pigweed” value [2, 20] was 100 and the “Plant response rating, Foxtail, Giant” value [3, 13] was 60. For the same compound, the “Plant response rating, Foxtail, Giant” value [3, 19] was 80, the “Plant response rating, Foxtail, Giant” value [3, 15] was 30 and the “Plant response rating, Foxtail, Giant” value [3, 20] was 70. For the same compound, the “Plant response rating, Wheat” value [4, 13] was 0, the “Plant response rating, Wheat” value [4, 19] was 0 and the “Plant response rating, Wheat” value [4, 15] was 0. The “Plant response rating, Wheat” value [4, 16] was 20, the “Plant response rating, Crabgrass, Large” value [5, 13] was 70 and the “Plant response rating, Crabgrass, Large” value [5, 19] was 90. For the same compound, the “Plant response rating, Crabgrass, Large” value [5, 15] was 50, the “Plant response rating, Crabgrass, Large” value [5, 20] was 100 and the “Plant response rating, Velvetleaf” value [6, 13] was 100. The “Plant response rating, Velvetleaf” value [6, 19] was 100, the “Plant response rating, Velvetleaf” value [6, 15] was 90 and the “Plant response rating, Velvetleaf” value [6, 16] was 100. The “Plant response rating, Barnyardgrass” value [7, 13] was 70, the “Plant response rating, Barnyardgrass” value [7, 19] was 100 and the “Plant response rating, Barnyardgrass” value [7, 15] was 20. For the same compound, the “Plant response rating, Barnyardgrass” value [7, 20] was 90, the “Plant response rating, Morningglory” value [8, 13] was 90 and the “Plant response rating, Morningglory” value [8, 19] was 90. The “Plant response rating, Morningglory” value [8, 15] was 0, the “Plant response rating, Morningglory” value [8, 20] was 80 and the “Plant response rating, Flood, Ducksalad” value [9] was 80. The “Plant response rating, Ducksalad” value [9, 17] was 80, the “Plant response rating, Ducksalad” value [9, 18] was 80 and the “Ducksalad plant response rating” value [9] was 80. For the same compound, the “Plant response rating, Flood, Barnyardgrass” value [10] was 25, the “Plant response rating, Barnyardgrass” value [10, 17] was 0 and the “Plant response rating, Barnyardgrass” value [10, 18] was 0. For the same compound, the “Barnyardgrass plant response rating” value [10] was 0, the “Plant response rating, Flood, Rice” value [11] was 0 and the “Plant response rating, Rice” value [11, 17] was 0. The “Plant response rating, Rice” value [11, 18] was 0, the “Rice plant response rating” value [11] was 0 and the “Plant response rating, Flood, Sedge, Umbrella” value [12] was 80. The “Plant response rating, Sedge, Umbrella” value [12, 17] was 0, the “Plant response rating, Sedge, Umbrella” value [12, 18] was 60 and the “Sedge, Umbrella plant response rating” value [12] was 0.
